Structures are written as SMILES.

For orientation: melting point means the temperature of the solid-liquid transition. For orientation: IC50 means the concentration that inhibits the measured activity by half.

One data set deals with P. falciparum. Briefly: Anti-Plasmodium activity: viability of P. falciparum cultures (pLDH enzyme assay). The data set is classed as cell-based. As to conditions: strain line ItG, 72 hr incubation, pLDH assay, mean of four determinations ± standard error, read-out: IC50 (μM) P. falciparum. How it is done: P. falciparum cultures were grown in O+ blood obtained by venipuncture of volunteers. Cultures of the laboratory line ItG were maintained by the method of Trager and Jensen (Trager, W.; Jensen, J. Science 1976, 193, 673) using RPM, 1640 supplemented with 10% human serum (a kind gift obtained under ethical consent from the Chemo Day Care department of the Princess Margaret Hospital, Toronto, Canada) and 50 μM hypoxanthine (RPMI-A). The effects of the test compounds on the viability of P. falciparum cultures were determined using a Lactate Dehydrogenase (LDH) enzyme assay specific to the enzyme found in Plasmodium falciparum (pLDH) (Prudhomme, J. G.; Sherman, I. W. J Immunol Methods 1999, 229(1-2), 169; Makler, M. T.; Ries, J. M.; Williams, J. A.; Bancroft, J. E.; Piper, R. C.; Gibbins, B. L.; Hinrichs, D. J. Am J Trop Med Hyg 1993, 48(6), 739). Briefly, compounds to be tested were dissolved in DMSO afford a solution having a concentration of 10 mg/mL. Two-fold serial dilutions were then produced in 50 μL of RPMI-A in a 96 well plate and then 50 μL of parasite culture (2% hematocrit, 2% parasitemia) were added to each well and the plates were then incubated at 37° C. in 95% N2, 3% CO2, and 2% O2 for 72 hr. The contents of the wells were then re-suspended using a multi-channel pipettor and a 15 μL sample was removed from each well and was added to 100 μL of pLDH enzyme assay mixture (Prudhomme, J. G.; Sherman, I. W. J Immunol Methods 1999, 229(1-2), 169). After 1 hr the absorbance of the wells at 650 nm was determined using a ThermoMax microplate reader (Molecular Devices, Sunnyvale, Calif.). The IC50 values of individual compounds were determined using a non-linear regression analysis of the data^19 using the computer program SigmaPlot (Jandel Scientific) and are reported in Table 1. The IC50 values represent the mean±standard error calculated from four independent determinations. To verify if the poor viability of the cultures was related to inhibited merozoite invasion, samples were taken from treated wells and the presence of extracellular merozoites was confirmed by microscopy.

The test system of the next data set is CHO cells. Put plainly: Viability of CHO cells (MTT). The data set is classed as cell-based. As to conditions: Cricetulus griseus; CHO cells; 48 hrs; MTT; mean of four determinations ± standard error; read-out: IC50 (μM) CHO cells. How it is done: CHO cells (ATCC, Manassas, Va.) were grown in RPMI-1640 supplemented with 10% fetal calf serum (Sigma, St. Louis, Mo.), 25 mM HEPES and gentimicin (RPMI-10). Cells were seeded in 96 well plates and grown to 50% confluency in 100 μL of RPMI-10 per well prior to the addition of either DMSO alone, or a 10 mg/mL solution of a test compound of the disclosure in DMSO. Compound gradients were prepared by adding 90 μL of RPMI-10 mixed with 10 μL of compound solution to the first well in the series, mixing, transferring 100 μL to the next well, and repeating until the next-to-last well was reached. After 48 hrs, the viability of the cells was determined by discarding the media in the wells and adding 100 μL of 10 mg/mL of 3-[4,5-dimethylthiazol-2-yl]-2,5-diphenyltetrazolium bromide (MTT, Sigma, St. Louis, Mo.) in RPMI-10, incubating the plates for a further hour, and then removing the media and adding 100 μL of DMSO and reading the absorbance at 650 nm (Campling, B. G.; Pym, J.; Galbraith, P. R.; Cole, S. P. Leuk Res 1988, 12(10), 823). The IC50 values of individual compounds were determined using a non-linear regression analysis of the dose-response curve using the computer program SigmaPlot (Jandel Scientific) and are reported in Table 1.

In a further data set the test system is P. berghei parasites. Briefly: In vivo evaluation: parasitemia in mice infected with P. berghei. Details: species or system P. berghei in female Balb/C mice. The method, then:
(§1) Groups of 5 female Balb/C mice were infected with 10^6 P. berghei parasites i.p. and the parasitemia was estimated daily by examining a Giemsa-stained blood film. Once parasites were observed mice were infused once daily with saline alone (control groups) or with 18 ug/day of QT72, 18 ug/day of QT69, 0.24 ug/day of QT98, 60 ug/day of QT109, 9 ug/day of QT119, 7.5 ug/day of QT124 or 450 ug/day of chloroquine (CQ) for three days, as indicated by the arrows in FIG. 1. Average parasitemias are shown in FIG. 1 with standard error of the mean for each experimental group indicated by bars. The separate graphs in FIG. 1 indicate the results of two separate experiments.

For data set [1], the system named is P. falciparum ItG cultures. Put plainly: Effect on synchronized ItG P. falciparum cultures (Giemsa stained blood films). The data set is classed as cell-based. Particulars: 20 uM; cultures synchronized at mature stage; 24 hrs incubation. The method, then:
The culture was allowed to incubate for 24 hrs before samples were withdrawn and used to produce Giemsa stained blood films.

On the set-up of data set [2]: species or system mice. As to conditions: mouse, in vivo. The method, then: as §1

The compound `Cl.Cl.c1cn(CCCCCCCCCCCCCCCn2ccnc2)cn1` displayed a melting point of 98 to 99 °C.
Turning to `c1ccc(Cn2cc[n+](Cc3ccc4ccccc4c3)c2)cc1` [QT69, 1-Benzyl-3-(naphthalen-2-yl-methyl)imidazolium bromide], the IC50 came to 0.9 ± 0.2 µM with P. falciparum and 108 ± 6 µM in the data set on CHO cells. The “parasitemia vs saline control” value with P. berghei parasites (18 ug/day infused once daily for three days, day 6 (P<0.10), day 7 (P<0.01), day 8 (P<0.01)) is reported as “significantly lower”. The “parasite forms in Giemsa stained blood films” value in data set [1] was “parasite forms were seen associated with the outside of the red cells”.
The compound `C[n+]1ccn(CCCCCCn2cc[n+](C)c2)c1` [QT87, 1,6-Bis-(3-methylimidazolium-1-yl)hexane diiodide] had a melting point of 156 to 157 °C. Moreover, in the data set on P. falciparum, the IC50 stood at 2.6 ± 0.8 µM. The IC50 in the data set with CHO cells came out at 146 ± 14 µM.
Turning to `C[n+]1ccn(-c2ccc(-c3ccc(-n4cc[n+](C)c4)cc3)cc2)c1` [QT98, 4,4′-Bis-(3-methyl-1H-imidazolium-1-yl)biphenyl diiodide], the IC50 is 0.009 ± 0.001 µM with P. falciparum and 9 ± 2 µM in the data set with CHO cells. Besides, the “parasitemia vs saline control” value in the data set with P. berghei parasites (0.24 ug/day infused once daily for three days, day 7 (P<0.05)) was “significantly lower”.
For the compound `C[n+]1ccn(CCCCCCCCCCCCCn2cc[n+](C)c2)c1` [QT109, 1,13-Bis-(3-methylimidazolium-1-yl)tridecane diiodide], the IC50 with P. falciparum came to 0.007 ± 0.003 µM; in the data set with CHO cells, 51 ± 11 µM. Besides, the “adverse effects on the health of the mice” value (“adverse effects” below) in data set [2] is given as “no adverse effects on the health of the mice were observed”.
Compound `C[n+]1ccn(CCCCCCCCCCCCCCCCCCCCn2cc[n+](C)c2)c1` [QT116, 1,20-Bis-(3-methylimidazolium-1-yl)eicosane diiodide] came in with a melting point of 78 to 80 °C. Further, in the data set with P. falciparum, the IC50 is 0.0021 ± 0.0005 µM. In addition, the IC50 in the data set on CHO cells is 1.4 ± 0.2 µM.
Consider `CCC[n+]1ccn(CCCCCCCCCCCCn2cc[n+](CCC)c2)c1` [QT119, 1,12-Bis(3-propylimidazolium-1-yl)dodecane diiodide], for which the results for the IC50 in the data set with P. falciparum and in the data set on CHO cells were 0.0008 ± 0.0001 µM and 78 ± 14 µM, respectively. Moreover, the “adverse effects” value in data set [2] is listed as “no adverse effects on the health of the mice were observed”. For the same compound, the “parasitemia vs saline control” value in the data set with P. berghei parasites (9 ug/day infused once daily for three days, second experiment, day 14 (P<0.10), day 15 (P<0.03)) is on record as “significantly lower”.
On to `C[n+]1cnn(CCCCCCCCCCCCn2c[n+](C)cn2)c1` [QT124, 1,12-Bis(4-methyl-1H-1,2,4-triazolium-1-yl)dodecane diiodide], for which the results for the IC50 in the data set with P. falciparum and with CHO cells were 0.00016 ± 5e-05 µM and 52 ± 9 µM, respectively. Besides, the “adverse effects” value in data set [2] was “no adverse effects on the health of the mice were observed”.
As for `c1cn(CCCCCCCCCCCCCCCCCCCCn2ccnc2)cn1` [QT-115, 1,20-Bis-(1H-imidazol-1-yl)eicosane], the melting point fell in the range of 58 to 59 °C.
Take `CCN(CC)CCCC(C)Nc1ccnc2cc(Cl)ccc12` (centres unmarked) [chloroquine, reference compound]: the “parasitemia vs saline control” value in the data set with P. berghei parasites (450 ug/day infused once daily for three days, second experiment, all days following day 6 (P<0.02)) was “significantly lower”.

The record behind these values is patent US8632914B2, “Triazolium and imidazolium salts and uses thereof” (University Health Network, priority 2008, dated 2014).
